From US20250282820A1, “PEPTIDE COMPLEX HAVING TRKB BINDING ACTIVITY” (PEPTIDREAM INC, priority 2022, published 2025)
*1 amine or outer side, *2 acyl side, *3 side chain or, on linkers, in order; H or OH if unused. Where a SMILES comes first, the peptide text is derived from it. Bridges are numbered along the chain shown (N, C = ends). Roman numbers before positions name the chains, in order. [ ]: non-standard residue; d: D form. ξ: configuration not given here. X4 = NC(=O)C(CCCCNC(=O)CCOCCC(=O)[*:1])NC(=O)CCOCCOCCOCCOCCOCCCCCOCCOCCN[*:2]; X1 = O=C(OCCOCCOCCOCCOCCOCCOCCOCCOCCOCCOCCOCCOC(=O)[*:2])[*:1]; X3 = CC(C)[C@H](CC(=O)[C@H](Cc1cccnc1)N[*:1])C(=O)[*:2]; PEG8 = NCCOCCOCCOCCOCCOCCOCCOCCOCCC(=O)O; 3Pal = N[C@@H](Cc1cccnc1)C(=O)O; Thr(3ξ) = CC(O)[C@H](N)C(=O)O; ξC = NC(CS)C(=O)O

Experiments:
Type in all cases: cell-based
[1] = biological target: T1, TrkB (CellSensor TrkB-NFAT-bla CHO-K1 Cell) (Homo sapiens, UniProt Q16620); test: pERK1/2 AlphaLISA assay (phosphorylation of ERK) for TrkB agonist activity; details: class = peptide concentration giving 50% or more activity; BDNF maximum signal = 100%, no stimulation = 0%; 15 minutes of stimulation
T1 construct: host or cells: CHO-K1 (CellSensor TrkB-NFAT-bla CHO-K1)
Experimental: To evaluate the TrkB activation potency of the TrkB agonist peptide of the present invention, the phosphorylation of ERK was examined. CellSensor (registered trademark) TrkB-NFAT-bla CHO-K1 Cell (Invitrogen) was cultured in DMEM, high glucose, GlutaMAX (registered trademark) Supplement, and pyruvate (Thermo), comprising 10% FBS (Thermo) and 1× Non-essential amino acids (Thermo), 25 mM HEPES (Thermo), 50 ug/mL Gentamicin, 5 ug/mL Blasticidin (Thermo), and 200 ug/mL Zeocin (Thermo). After the cells were detached using Accutase (Innovative Cell Technologies), they were seeded into a 96-well plate for adherent cultures at 12,500 cells per well and cultured overnight. The next day, for starvation, the culture solution above was replaced with a nutrient starvation medium comprising 0.1% BSA (Sigma), wherein FBS, Blasticidin, and Zeocin were removed from the culture medium, and culturing was performed for 4 hours. Thereafter, Recombinant Human BDNF Protein (R&D Systems) or a peptide was added, and after 15 minutes of stimulation, cells were lysed in the Lysis Buffer provided with the AlphaLISA SureFire Ultra p-Erk1/2 (Thr202/Tyr204) assay kit (PerkinElmer). The assay was performed according to the kit protocol. The signals were detected using a SpectraMax Paradigm Multi-Mode Microplate Reader (Molecular Devices). The obtained signals were analyzed with GraphPad Prism, and the activity (%) was calculated with the maximum value of the signals induced by BDNF as 100% and a signal with no stimulation as 0%. The peptide with 50% or more activity when 1 nM of the peptide was added was evaluated as A, and the peptide with 50% or more activity when 10 nM of the peptide was added was evaluated as B.
The BDNF was evaluated at 8 points (0.0006 nM to 10 nM) from 10 nM using 4-fold dilutions.
(§1) For dimer structures Nos. 1 to 3, the peptide was evaluated at 1 nM, 10 nM, and 100 nM, and, for other dimer structure numbers, the peptide was evaluated at 0.1 nM, 1 nM, and 10 nM. When creating the concentration dependence curve, the BDNF and the peptides were evaluated at 8 points (0.006 nM to 100 nM) from 100 nM using 4-fold dilutions.

[2] = biological target: T1, TrkB (CellSensor TrkB-NFAT-bla CHO-K1 Cell); test: NFAT transcriptional reporter assay for TrkB agonist activity; details: class = peptide concentration giving 50% or more activity; BDNF maximum signal = 100%, no stimulation = 0%; 5 hours culture
Experimental: To evaluate the TrkB activation potency of the TrkB agonist peptide of the present invention, transcriptional activity was examined using transcriptional reporters. The CellSensor (registered trademark) TrkB-NFAT-bla CHO-K1 Cell (Invitrogen) used in the AlphaLISA assay was cultured in the medium above. After the cells were detached using Accutase (Innovative Cell Technologies), the cells were suspended in an assay medium, wherein Blasticidin and Zeocin were removed, then seeded into a 96-well plate for adherent cultures at 12,500 cells per well and cultured overnight. Then, BDNF or a peptide was added thereto, and the cells were further cultured in a CO2 incubator for 5 hours. After the 96-well plate was removed from the incubator and brought to room temperature, a detection reagent (LiveBLAzer (registered trademark)-FRET B/G (CCF4-AM) Substrate Mixture) was added while protected from the light, and the 96-well plate was incubated while protected from the light in a moisture box with a lid for 2 hours. For signal detection, a EnVision 2104 Multilabel Plate Reader (PerkinElmer) was used, and the ratio of fluorescence emission value (460 nm/535 nm) was calculated. The obtained numerical values were analyzed with GraphPad Prism, and the activity (%) was calculated with the maximum value of the signals induced by BDNF as 100% and a signal with no stimulation as 0%. The peptide with 50% or more activity when 1 nM of the peptide was added was evaluated as A, the peptide with 50% or more activity when 10 nM of the peptide was added was evaluated as B, and the peptide with 50% or more activity when 100 nM of the peptide was added was evaluated as C. Those that were not evaluated were listed as not tested.
The BDNF was evaluated at 7 points (0.0024 nM to 10 nM) from 10 nM using 4-fold dilutions.
as §1, with “at […]” for “at 8”, “[…]” for “from 100”

TrkB = TrkB (Homo sapiens, UniProt Q16620); test: PathHunter eXpress TrkB Functional Assay (phosphorylation of TrkB); details: maximum signal induced by BDNF = 100%; stimulation for 3 hours
Experimental: To evaluate the TrkB activation potency of the TrkB agonist peptide of the present invention, the phosphorylation of TrkB was examined. The PathHunter (registered trademark) eXpress TrkB Functional Assay kit (DiscoverX; cells, 96-well plate, medium, and detection reagents included) was used and the evaluation was performed according to the attached protocols. The frozen cells were thawed and suspended in the medium, then seeded into a 96-well plate at 10,000 cells per well and incubated for 48 hours. Thereafter, Recombinant Human BDNF Protein (R&D Systems) or a peptide was added, and after stimulation for 3 hours, a detection reagent was added. The reaction was performed while protected from the light at room temperature for 60 minutes, and luminescent signals were measured using a SpectraMax Paradigm Multi-Mode Microplate Reader (Molecular Devices). The obtained signals were analyzed with GraphPad Prism, and the activity (%) was calculated with the maximum value of the signals induced by BDNF as 100% and a signal with no stimulation as 0%.
The BDNF was evaluated at 8 points (0.006 nM to 100 nM) from 100 nM using 4-fold dilutions. The peptide was evaluated in the measurement ranges A to C shown below. • Measurement range A=6 points from 100 nM using 5-fold dilutions (0.032 nM to 100 nM) • Measurement range B=8 points from 100 nM using 4-fold dilutions (0.006104 nM to 100 nM) • Measurement range C=4 points from 10 nM using 10-fold dilutions (0.01 nM to 10 nM)

T1 sequence (Q16620 32-822): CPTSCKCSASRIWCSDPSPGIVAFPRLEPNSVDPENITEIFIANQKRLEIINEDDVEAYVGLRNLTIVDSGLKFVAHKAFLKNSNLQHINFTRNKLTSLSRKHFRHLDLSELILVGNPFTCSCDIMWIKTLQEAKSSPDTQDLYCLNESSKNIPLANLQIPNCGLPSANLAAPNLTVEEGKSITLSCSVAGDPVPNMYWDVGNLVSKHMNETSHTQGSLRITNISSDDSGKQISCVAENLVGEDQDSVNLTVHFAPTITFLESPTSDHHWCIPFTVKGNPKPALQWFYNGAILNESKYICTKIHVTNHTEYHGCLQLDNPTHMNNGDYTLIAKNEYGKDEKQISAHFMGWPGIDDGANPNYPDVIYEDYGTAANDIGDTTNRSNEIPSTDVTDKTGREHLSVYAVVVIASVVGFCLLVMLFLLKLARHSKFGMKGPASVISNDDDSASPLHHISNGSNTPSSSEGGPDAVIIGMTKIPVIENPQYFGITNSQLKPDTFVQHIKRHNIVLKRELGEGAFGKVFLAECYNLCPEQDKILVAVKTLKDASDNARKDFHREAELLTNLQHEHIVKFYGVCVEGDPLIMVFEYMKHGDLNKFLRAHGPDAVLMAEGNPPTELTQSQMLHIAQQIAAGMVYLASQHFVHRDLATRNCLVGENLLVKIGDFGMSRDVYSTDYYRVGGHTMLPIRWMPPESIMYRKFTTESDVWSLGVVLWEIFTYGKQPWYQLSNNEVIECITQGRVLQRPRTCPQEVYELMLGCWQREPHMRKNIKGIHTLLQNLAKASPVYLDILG
TrkB, sequence (Q16620 32-822): as above

Row | SMILES | pERK (aLISA) Assay Results [1] | NFAT Assay Results [2] | Emax (TrkB) [%]
1 | CC(=O)NCCCC[C@@H]1NC(=O)[C@H](CO)NC(=O)[C@H](Cc2ccc(O)cc2)NC(=O)[C@H]([C@@H](C)O)NC(=O)[C@@H]2CCCN2C(=O)[C@H](Cc2c[nH]c3ccccc23)NC(=O)[C@H](Cc2cccnc2)NC(=O)[C@H](Cc2ccc(O)cc2)NC(=O)[C@@H]2CCCN2C(=O)[C@H](CC(C)C)NC(=O)[C@H](Cc2ccccc2)NC(=O)CSCC(C(=O)NCC(=O)NCCOCCOCCOCCOCCOCCOCCOCCOCCC(=O)N[C@@H](CCCCNC(=O)CCOCCC(=O)NCCCCC(NC(=O)CCOCCOCCOCCOCCOCCCCCOCCOCCNC(=O)CNC(=O)C2CSCC(=O)N[C@@H](Cc3ccccc3)C(=O)N[C@@H](CC(C)C)C(=O)N3CCC[C@H]3C(=O)N[C@@H](Cc3ccc(O)cc3)C(=O)N[C@@H](Cc3cccnc3)C(=O)N[C@@H](Cc3c[nH]c4ccccc34)C(=O)N3CCC[C@H]3C(=O)N[C@@H](C(C)O)C(=O)N[C@@H](Cc3ccc(O)cc3)C(=O)N[C@@H](CO)C(=O)N[C@@H](CCCCNC(C)=O)C(=O)N[C@@H](Cc3cccnc3)C(=O)N[C@@H](C(C)C)C(=O)N[C@@H](CCC(=O)O)C(=O)N2)C(N)=O)C(N)=O)NC(=O)[C@H](CCC(=O)O)NC(=O)[C@H](C(C)C)CC(=O)[C@H](Cc2cccnc2)NC1=O (stereo partly shown) [Dimer Structure No. 40] (I: {CH2CO}-FLPY[3Pal]WPTYSK(Ac)[X3]E[ξC]G[PEG8]K-NH2 / II: {CH2CO}-FLPY[3Pal]WP[Thr(3ξ)]YSK(Ac)[3Pal]VE[ξC]G; linker I:17-II:C via X4; thioether I:N-I:14, II:N-II:15) | B (the peptide with 50% or more activity when 10 nM of the peptide was added was evaluated as B) | B (the peptide with 50% or more activity when 10 nM of the peptide was added was evaluated as B) | 
2 | CC(C)[C@@H]1NC(=O)[C@H](Cc2cccnc2)NC(=O)[C@H](CCC(=O)O)NC(=O)[C@H](CO)NC(=O)[C@H](Cc2ccc(O)cc2)NC(=O)[C@H]([C@@H](C)O)NC(=O)[C@@H]2CCCN2C(=O)[C@H](Cc2c[nH]c3ccccc23)NC(=O)[C@H](Cc2cccnc2)NC(=O)[C@H](Cc2ccc(O)cc2)NC(=O)[C@@H]2CCCN2C(=O)[C@H](CO)NC(=O)[C@H](Cc2ccccc2)NC(=O)CSC[C@@H](C(=O)NCC(=O)N[C@@H](CCCCNC(=O)OCCOCCOCCOCCOCCOCCOCCOCCOCCOCCOCCOCCOC(=O)NCCCC[C@H](NC(=O)CNC(=O)[C@@H]2CSCC(=O)N[C@@H](Cc3ccccc3)C(=O)N[C@@H](CO)C(=O)N3CCC[C@H]3C(=O)N[C@@H](Cc3ccc(O)cc3)C(=O)N[C@@H](Cc3cccnc3)C(=O)N[C@@H](Cc3c[nH]c4ccccc34)C(=O)N3CCC[C@H]3C(=O)N[C@@H]([C@@H](C)O)C(=O)N[C@@H](Cc3ccc(O)cc3)C(=O)N[C@@H](CO)C(=O)N[C@@H](CCC(=O)O)C(=O)N[C@@H](Cc3cccnc3)C(=O)N[C@@H](C(C)C)C(=O)N[C@@H](CCC(=O)O)C(=O)N2)C(N)=O)C(N)=O)NC(=O)[C@H](CCC(=O)O)NC1=O [compound 55] (I: {CH2CO}-FSPY[3Pal]WPTYSE[3Pal]VECGK-NH2 / II: {CH2CO}-FSPY[3Pal]WPTYSE[3Pal]VECGK-NH2; linker I:17-II:17 via X1; thioether I:N-I:15, II:N-II:15) | A (The peptide with 50% or more activity when 1 nM of the peptide was added was evaluated as A) | A (The peptide with 50% or more activity when 1 nM of the peptide was added was evaluated as A) | 104
3 | CC(C)C[C@@H]1NC(=O)[C@H](CO)NC(=O)[C@H](Cc2ccc(O)cc2)NC(=O)[C@H]([C@@H](C)O)NC(=O)[C@@H]2CCCN2C(=O)[C@H](Cc2c[nH]c3ccccc23)NC(=O)[C@H](Cc2cccnc2)NC(=O)[C@H](Cc2ccc(O)cc2)NC(=O)[C@@H]2CCCN2C(=O)[C@H](CC(C)C)NC(=O)[C@H](Cc2ccccc2)NC(=O)CSC[C@@H](C(=O)NCC(=O)NCCOCCOCCOCCOCCOCCOCCOCCOCCC(=O)NCCCC[C@H](NC(=O)CCOCCOCCOCCOCCOCCOCCOCCOCCNC(=O)CNC(=O)[C@@H]2CSCC(=O)N[C@@H](Cc3ccccc3)C(=O)N[C@@H](CC(C)C)C(=O)N3CCC[C@H]3C(=O)N[C@@H](Cc3ccc(O)cc3)C(=O)N[C@@H](Cc3cccnc3)C(=O)N[C@@H](Cc3c[nH]c4ccccc34)C(=O)N3CCC[C@H]3C(=O)N[C@@H]([C@@H](C)O)C(=O)N[C@@H](Cc3ccc(O)cc3)C(=O)N[C@@H](CO)C(=O)N[C@@H](CC(C)C)C(=O)N[C@@H](Cc3cccnc3)C(=O)N[C@@H](C(C)C)C(=O)N[C@@H](Cc3c[nH]c4ccccc34)C(=O)N2)C(N)=O)NC(=O)[C@H](Cc2c[nH]c3ccccc23)NC(=O)[C@H](C(C)C)NC(=O)[C@H](Cc2cccnc2)NC1=O [Dimer Structure No. 2] (I: {CH2CO}-FLPY[3Pal]WPTYSL[3Pal]VWCG[PEG8]K-NH2 / II: {CH2CO}-FLPY[3Pal]WPTYSL[3Pal]VWCG[PEG8]; amide I:18-II:C; thioether I:N-I:15, II:N-II:15) | B (the peptide with 50% or more activity when 10 nM of the peptide was added was evaluated as B) | C (the peptide with 50% or more activity when 100 nM of the peptide was added was evaluated as C) | 
